Experiments:
Assay in all cases: FRT cell Ussing chamber chloride transport assay
Format in all cases: cell-based
human CFTR mutant G970R = target: T1, human CFTR mutant G970R (Homo sapiens, UniProt P13569, G970R); details: FRT cells expressing G970R CFTR
T1 construct: expressed in transfected cells; host or cells: Fisher rat thyroid (FRT) FlpIn cells, pcDNA5/FRT
Source text: (§1) DNA cloning: Wild-type CFTR coding region was inserted into pcDNA5/FRT (Invitrogen, San Diego, Calif.) between EcoRV and ApaI.
(§2) Single CFTR gene mutations were introduced into the wild-type CFTR coding sequence by using QuickChange XL site-directed mutagenesis kit (Stratagene, Cambridge, UK). The CFTR coding region as well as its promoter sequence and 3′ untranslated sequence was fully sequenced to confirm the mutagenesis reaction.
(§3) The CFTR gene was stably expressed in Fisher rat thyroid (FRT) cells through FlpIn system. The FRT-FlpIn host cell line was generated by stably transfecting FRT cells with pFRT/lacZeo. The single integration of a FRT site was confirmed by Southern blot. After the mutant CFTR DNA was transfected into the FRT-FlpIn host cell line, the cells were incubate at 37° C. in Coon's modified Ham's F12 containing 10% FBS, 1% Pen/Strep, and 36 ml of Na− Bicarbonate for up to 8 passages under hygromycin selection (200 ug/ml).
(§4) All cells were grown on Costar® Snapwell™ cell culture inserts at maintained at 37° C. prior to recording. The cell culture inserts were mounted into an Ussing chamber (VCC MC8; Physiologic Instruments, Inc., San Diego, Calif.) to record ISC in the voltage-clamp mode (Vhold=0 mV). For FRT cells, the basolateral membrane was permeabilized with 360 μg/ml Nystatin and a basolateral to apical Cl− gradient was established. The basolateral bath solution contained (in mM); 135 NaCl, 1.2 CaCl2, 1.2 MgCl2, 2.4 K2HPO4, 0.6 KHPO4, 10 N-2-hydroxyethylpiperazine-N′-2-ethanesulfonic acid (HEPES), and 10 dextrose (titrated to pH 7.4 with NaOH). The apical NaCl was replaced by equimolar Na+ gluconate (titrated to pH 7.4 with NaOH). For HBE cells, the ISC was measured in the presence of a basolateral to apical Cl− gradient. The normal Cl− solution contained (in mM) 145 NaCl, 3.3 K2HPO4, 1.2 MgCl2, 1.2 CaCl2, 10 Glucose, 10 HEPES (pH adjusted to 7.35 with NaOH) and the low Cl− solution contained (in mM) 145 NaGluconate, 1.2 MgCl2, 1.2 CaCl2, 10 glucose, 10 HEPES (pH adjusted to 7.35 with NaOH). All recordings were digitally acquired using a Acquire and Analyze software (version 2; Physiologic Instruments, Inc. San Diego, Calif.).
(§5) The 10 μM forskolin stimulated response in FRT cell expressing different mutant CFTR forms or in HBE cells isolated from CF patients was normalized to the 10 μM forskolin-stimulated response in FRT cells expressing wild-type CFTR or in HBE isolated from non-CF individuals and expressed as % wild-type CFTR. In HBE, amiloride was added prior to forskolin application to block the epithelial Na+ channel.

human CFTR mutant L206W = target: T2, human CFTR mutant L206W (Homo sapiens, UniProt P13569, L206W); details: FRT cells expressing L206W CFTR
T2 construct: expressed in transfected cells; host or cells: Fisher rat thyroid (FRT) FlpIn cells, pcDNA5/FRT
T2 sequence (P13569 whole entry L206W): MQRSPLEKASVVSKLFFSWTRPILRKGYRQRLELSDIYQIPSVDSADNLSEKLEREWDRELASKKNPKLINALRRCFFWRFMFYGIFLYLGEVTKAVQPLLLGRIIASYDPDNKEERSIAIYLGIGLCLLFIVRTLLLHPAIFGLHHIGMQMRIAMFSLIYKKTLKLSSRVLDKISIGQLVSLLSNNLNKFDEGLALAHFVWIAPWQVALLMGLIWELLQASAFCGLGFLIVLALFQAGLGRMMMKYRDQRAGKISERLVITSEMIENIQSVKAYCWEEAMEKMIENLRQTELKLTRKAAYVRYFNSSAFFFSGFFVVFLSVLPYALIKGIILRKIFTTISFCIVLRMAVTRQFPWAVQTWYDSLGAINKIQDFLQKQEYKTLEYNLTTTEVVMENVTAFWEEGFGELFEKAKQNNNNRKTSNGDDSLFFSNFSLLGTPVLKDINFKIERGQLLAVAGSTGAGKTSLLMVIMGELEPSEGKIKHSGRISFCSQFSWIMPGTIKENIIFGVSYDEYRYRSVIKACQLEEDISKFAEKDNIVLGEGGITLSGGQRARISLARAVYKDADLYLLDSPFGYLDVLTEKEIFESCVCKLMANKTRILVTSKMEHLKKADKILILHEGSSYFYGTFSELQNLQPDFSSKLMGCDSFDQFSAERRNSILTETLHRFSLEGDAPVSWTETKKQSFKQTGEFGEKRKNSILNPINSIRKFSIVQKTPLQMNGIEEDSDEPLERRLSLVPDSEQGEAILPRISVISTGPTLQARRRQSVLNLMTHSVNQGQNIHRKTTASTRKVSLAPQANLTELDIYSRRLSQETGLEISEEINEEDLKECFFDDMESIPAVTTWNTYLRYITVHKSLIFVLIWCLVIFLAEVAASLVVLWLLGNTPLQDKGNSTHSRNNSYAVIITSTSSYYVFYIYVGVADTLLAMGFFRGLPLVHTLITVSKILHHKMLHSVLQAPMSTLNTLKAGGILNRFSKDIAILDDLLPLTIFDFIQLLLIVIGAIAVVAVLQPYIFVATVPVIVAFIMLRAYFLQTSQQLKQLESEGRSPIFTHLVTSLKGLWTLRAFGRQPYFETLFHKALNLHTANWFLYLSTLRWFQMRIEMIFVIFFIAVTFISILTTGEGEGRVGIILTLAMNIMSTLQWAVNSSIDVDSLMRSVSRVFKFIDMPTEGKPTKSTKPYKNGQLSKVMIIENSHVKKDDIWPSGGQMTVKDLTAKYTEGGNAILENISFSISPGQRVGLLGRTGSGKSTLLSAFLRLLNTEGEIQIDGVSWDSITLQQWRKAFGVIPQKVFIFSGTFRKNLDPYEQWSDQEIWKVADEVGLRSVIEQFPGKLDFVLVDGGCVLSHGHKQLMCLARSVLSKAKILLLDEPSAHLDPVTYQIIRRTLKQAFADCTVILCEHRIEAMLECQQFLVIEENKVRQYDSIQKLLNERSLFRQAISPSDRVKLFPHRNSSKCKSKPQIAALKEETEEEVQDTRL
Source text: as §1, §2, §3, §4, §5

human CFTR mutant P67L = target: T3, human CFTR mutant P67L (Homo sapiens, UniProt P13569, P67L); details: FRT cells expressing P67L CFTR
T3 construct: expressed in transfected cells; host or cells: Fisher rat thyroid (FRT) FlpIn cells, pcDNA5/FRT
T3 sequence (P13569 whole entry P67L): as the sequence (P13569 whole entry L206W) above, with P67L, W206L counted along it
Source text: as §1, §2, §3, §4, §5

human CFTR mutant R1070W = target: T4, human CFTR mutant R1070W (Homo sapiens, UniProt P13569, R1070W); details: FRT cells expressing R1070W CFTR
T4 construct: expressed in transfected cells; host or cells: Fisher rat thyroid (FRT) FlpIn cells, pcDNA5/FRT
T4 sequence (P13569 whole entry R1070W): as the sequence (P13569 whole entry L206W) above, with W206L, R1070W counted along it
Source text: as §1, §2, §3, §4, §5

human CFTR mutant R117C = target: T5, human CFTR mutant R117C (Homo sapiens, UniProt P13569, R117C); details: FRT cells expressing R117C CFTR
T5 construct: expressed in transfected cells; host or cells: Fisher rat thyroid (FRT) FlpIn cells, pcDNA5/FRT
T5 sequence (P13569 whole entry R117C): as the sequence (P13569 whole entry L206W) above, with R117C, W206L counted along it
Source text: as §1, §2, §3, §4, §5

human CFTR mutant R347H = target: T6, human CFTR mutant R347H (Homo sapiens, UniProt P13569, R347H); details: FRT cells expressing R347H CFTR
T6 construct: expressed in transfected cells; host or cells: Fisher rat thyroid (FRT) FlpIn cells, pcDNA5/FRT
T6 sequence (P13569 whole entry R347H): as the sequence (P13569 whole entry L206W) above, with W206L, R347H counted along it
Source text: as §1, §2, §3, §4, §5

human CFTR mutant R352Q = target: T7, human CFTR mutant R352Q (Homo sapiens, UniProt P13569, R352Q); details: FRT cells expressing R352Q CFTR
T7 construct: expressed in transfected cells; host or cells: Fisher rat thyroid (FRT) FlpIn cells, pcDNA5/FRT
T7 sequence (P13569 whole entry R352Q): as the sequence (P13569 whole entry L206W) above, with W206L, R352Q counted along it
Source text: as §1, §2, §3, §4, §5

human CFTR mutant S1235R = target: T8, human CFTR mutant S1235R (Homo sapiens, UniProt P13569, S1235R); details: FRT cells expressing S1235R CFTR
T8 construct: expressed in transfected cells; host or cells: Fisher rat thyroid (FRT) FlpIn cells, pcDNA5/FRT
T8 sequence (P13569 whole entry S1235R): as the sequence (P13569 whole entry L206W) above, with W206L, S1235R counted along it
Source text: as §1, §2, §3, §4, §5

human CFTR mutant S1251N = target: T9, human CFTR mutant S1251N (Homo sapiens, UniProt P13569, S1251N); details: FRT cells expressing S1251N CFTR
T9 construct: expressed in transfected cells; host or cells: Fisher rat thyroid (FRT) FlpIn cells, pcDNA5/FRT
T9 sequence (P13569 whole entry S1251N): as the sequence (P13569 whole entry L206W) above, with W206L, S1251N counted along it
Source text: as §1, §2, §3, §4, §5

human CFTR mutant S1255P = target: T10, human CFTR mutant S1255P (Homo sapiens, UniProt P13569, S1255P); details: FRT cells expressing S1255P CFTR
T10 construct: expressed in transfected cells; host or cells: Fisher rat thyroid (FRT) FlpIn cells, pcDNA5/FRT
T10 sequence (P13569 whole entry S1255P): as the sequence (P13569 whole entry L206W) above, with W206L, S1255P counted along it
Source text: as §1, §2, §3, §4, §5

human CFTR mutant S549N = target: T11, human CFTR mutant S549N (Homo sapiens, UniProt P13569, S549N); details: FRT cells expressing S549N CFTR
T11 construct: expressed in transfected cells; host or cells: Fisher rat thyroid (FRT) FlpIn cells, pcDNA5/FRT
T11 sequence (P13569 whole entry S549N): as the sequence (P13569 whole entry L206W) above, with W206L, S549N counted along it
Source text: as §1, §2, §3, §4, §5

human CFTR mutant S549R = target: T12, human CFTR mutant S549R (Homo sapiens, UniProt P13569, S549R); details: FRT cells expressing S549R CFTR
T12 construct: expressed in transfected cells; host or cells: Fisher rat thyroid (FRT) FlpIn cells, pcDNA5/FRT
T12 sequence (P13569 whole entry S549R): as the sequence (P13569 whole entry L206W) above, with W206L, S549R counted along it
Source text: as §1, §2, §3, §4, §5

human CFTR mutant S945L = target: T13, human CFTR mutant S945L (Homo sapiens, UniProt P13569, S945L); details: FRT cells expressing S945L CFTR
T13 construct: expressed in transfected cells; host or cells: Fisher rat thyroid (FRT) FlpIn cells, pcDNA5/FRT
T13 sequence (P13569 whole entry S945L): as the sequence (P13569 whole entry L206W) above, with W206L, S945L counted along it
Source text: as §1, §2, §3, §4, §5

T1 sequence (P13569 whole entry G970R): as the sequence (P13569 whole entry L206W) above, with W206L, G970R counted along it

CC(C)(C)c1cc(C(C)(C)C)c(NC(=O)c2c[nH]c3ccccc3c2=O)cc1O [Compound 1, N-[2,4-bis(1,1-dimethylethyl)-5-hydroxyphenyl]-1,4-dihydro-4-oxoquinoline-3-carboxamide]
increase in chloride transport, relative to baseline chloride transport (human CFTR mutant G970R): greater than 10 fold
increase in chloride transport, relative to baseline chloride transport (human CFTR mutant L206W): greater than or equal to 10%
increase in chloride transport, relative to baseline chloride transport (human CFTR mutant P67L): greater than or equal to 10%
increase in chloride transport, relative to baseline chloride transport (human CFTR mutant R1070W): greater than or equal to 10%
increase in chloride transport, relative to baseline chloride transport (human CFTR mutant R117C): greater than or equal to 10%
increase in chloride transport, relative to baseline chloride transport (human CFTR mutant R347H): greater than or equal to 10%
increase in chloride transport, relative to baseline chloride transport (human CFTR mutant R352Q): greater than or equal to 10%
increase in chloride transport, relative to baseline chloride transport (human CFTR mutant S1235R): greater than or equal to 10%
increase in chloride transport, relative to baseline chloride transport (human CFTR mutant S1251N): greater than 10 fold
increase in chloride transport, relative to baseline chloride transport (human CFTR mutant S1255P): greater than 10 fold
increase in chloride transport, relative to baseline chloride transport (human CFTR mutant S549N): greater than 10 fold
increase in chloride transport, relative to baseline chloride transport (human CFTR mutant S549R): greater than 10 fold
increase in chloride transport, relative to baseline chloride transport (human CFTR mutant S945L): greater than or equal to 10%

Reference: US20130331412A9, “Pharmaceutical Compositions and Administrations Thereof” (VERTEX PHARMACEUTICALS INCORPORATED, priority 2010, published 2013)
